Source: patent US11311524B2, “Pharmaceutical composition used for treatment of HTLV-1-associated myelopathy” (DAIICHI SANKYO COMPANY, LIMITED, priority 2017, dated 2022)

Legend:
HCT-4 cells = assay: Proliferation/viability of HTLV-1 infected cell line HCT-4 (CCK-8); format: cell-based, human; settings: for Viability of HTLV-1 infected cells vs DMSO group: HCT-4, 1 μM, up to 21 days culture; for GI50: Homo sapiens, 336 h, 14 days culture, CCK-8
Protocol: HCT-4 and HCT-5, which were HTLV-1 infected cell lines established from the cerebrospinal fluid of HAM patients, were donated from a professor, Tatsufumi Nakamura of the Nagasaki International University. HCT-4 was cultured in RPMI1640 culture medium containing 10% FBS (GIBCO), a 1% penicillin-streptomycin solution (Wako) and 100 U/mL IL-2 (Cell Science & Technology Institute, Inc.); whereas HCT-5 was cultured by using 10% FBS, 1% penicillin-streptomycin solution, 1% L-glutamine (SIGMA) and 200 U/mL IL-2. HCT-4 (3×10^6 cells) or HCT-5 (2.5×10^6 cells) were seeded in a culture medium (20 mL) in a 75 cm^2-culture flask. DMSO was added and compound A or B was added so as to provide a final concentration of 1 μM and culture was carried out at 37° C. in 5% CO2 conditions for 21 days while repeating subculture. In the subculture, a culture solution containing HCT-4 treated with DMSO so as to correspond to 3×10^6 cells, whereas a culture solution containing HCT-5 treated with DMSO so as to correspond to 2.5×10^6 cells were taken and each added to a new culture medium to obtain a final volume of 20 mL, and then, further compound A or B was added so as to obtain the same concentration as above. Day 7, 14 and 21 after initiation of culture, cells were recovered from the culture solution and the density of the cells was measured. In this manner, the effect of compound A or B on cell proliferation was examined. The density of cells was determined by seeding cultured cells in a 96-well plate in a volume of 100 μL per well, adding 10 μL of Cell counting kit-8 (CCK-8) (Dojindo Laboratories laboratory) per well, incubating the cells at 37° C. for 3 hours and measuring absorbance at 450 nm by a plate reader (iMark Microplate Reader, Biorad). The proliferation rates of cell groups treated with compound A or compound B were each calculated based on the cell group treated with DMSO as a control. Next, in a 6-well plate, HCT-4 (4.5×10^5 cells) or HCT-5 (3.75×10^5 cells) were seeded. A solution of compound A or B prepared with DMSO was serially diluted (4-fold dilution from 10000 nM was serially repeated 8 times) and added thereto. The cells were repeatedly subcultured at intervals of 3 to 4 days in a culture solution of 3 mL in total at 37° C. in 5% CO2 condition for 14 days. […] The cells cultured for 14 days in individual conditions were recovered and the density of the cells were measured. […] The density of cells was determined by seeding the cultured cells (100 μL) per well in a 96-well plate, adding 10 μL of CCK-8 per well, incubating the cells at 37° C. for 3 hours and measuring absorbance at 450 nm by a plate reader. The proliferation rate of a group treated with compound A or compound B was calculated based on the group treated with DMSO as a control.

HAM patient-derived PBMC = assay: IL-10 and other cytokine release from HAM patient-derived PBMC (Cytokine Beads Array); format: cell-based, human; settings: PBMC of 8 HAM patients, 12 days culture, 1-1000 nM, relative to DMSO
Protocol: PBMC taken from 8 HAM patients were suspended in a culture medium (RPMI1640 culture medium containing 10% FBS), seeded in a 48-well plate in a ratio of 5×10^5 cells per well and a compound A or compound B was added so as to provide a final concentration of 1, 10, 100 or 1000 nM. The culture solution of 0.5 mL in total was cultured at 37° C. in 5% CO2 conditions for 12 days. A group treated with DMSO and a group treated with PSL (1 μg/mL) were used as controls. Day 12 after initiation of the culture, the culture solution was centrifuged, and thereafter, the culture supernatant alone was recovered. The concentration of IL-10 in the culture supernatant was determined by use of the Cytokine Beads Array kit (BD Biosciences) and a flow cytometer FACSCantoII (BD Biosciences) (Yamauchi et al., J Infect Dis. 2015, 211 (2): 238-48). Based on the IL-10 concentration in the culture solution of the DMSO treatment group as 100%, changes in IL-10 concentration of culture solutions of groups treated with compound A and compound B different in concentration or a group treated with PSL (1 μg/mL) were compared. The significance test was carried out by using the Friedman test of GraphPad Prism6 (MDF).

Structure (SMILES) | Viability of HTLV-1 infected cells vs DMSO group (HCT-4 cells) | GI50 (HCT-4 cells) [nM] | Yield of IL-10 from PBMC (HAM patient-derived PBMC)
Cc1cc(C)c(CNC(=O)c2cc(Cl)c3c(c2C)O[C@@](C)([C@H]2CC[C@H](N(C)C)CC2)O3)c(=O)[nH]1 [compound B, (2R)-7-chloro-2-[trans-4-(dimethylamino)cyclohexyl]-N-[(4,6-dimethyl-2-oxo-1,2-dihydropyridin-3-yl)methyl]-2,4-dimethyl-1,3-benzodioxole-5-carboxamide] | significantly reduce the viability | 5.92 | dramatically increased
Cc1cc(C)c(CNC(=O)c2cc(Br)c3c(c2C)O[C@@](C)([C@H]2CC[C@H](N(C)C)CC2)O3)c(=O)[nH]1 [compound A, (2R)-7-bromo-2-[trans-4-(dimethylamino)cyclohexyl]-N-[(4,6-dimethyl-2-oxo-1,2-dihydropyridin-3-yl)methyl]-2,4-dimethyl-1,3-benzodioxole-5-carboxamide] | significantly reduce the viability | 7.63 | dramatically increased
